Measurements: patent US10513694B2, “Thienopyrrole compounds and uses thereof” (PROMEGA CORPORATION, priority 2015, dated 2019)
Entries after “also recorded” stand apart in the source; their conditions may differ.

Experiments:
[1] = tested on: firefly luciferase, e.g., ULTRAGLO® luciferase; experiment: Specificity of inhibition: firefly luciferase activity; type: biochemical; conditions: 1 μM luciferin in Luciferase Detection Reagent; RT 2 hrs
Outline: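 Counter-screen against firefly (ULTRAGLO®) luciferase: 1 μM luciferin in detection reagent mixed with equal volume of compound titrations. After 2 hrs at RT, luminescence read.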

[2] = tested on: Beta-2 Adrenergic Receptor-Nluc (B2AR-Nluc) fusion protein; experiment: Cell permeability, B2AR-Nluc in HEK293 -/+ digitonin; type: cell-based; conditions: HEK293 B2AR-Nluc -/+ 50 μg/mL digitonin; up to 2 hrs
Method: HEK293 were transiently transfected with Beta-2 Adrenergic Receptor-Nluc (B2AR-Nluc) fusion protein to anchor and orient Nluc cytosolically and pGEM-3z carrier DNA (1:100). 24 hrs post-transfection, cells were treated with −/+50 μg/mL digitonin to emulate a live and lytic scenario, respectively. Then, intact cells and permeabilized cells were exposed to a compound response curve of thienopyrrole compound up to 2 hrs. 10 μM furimazine (Promega Corp.) was added, and luminescence was measured. If a thienopyrrole compound (inhibitor) was permeable, the dose-response curves for both live and permeabilized cells overlapped. However, if a thienopyrrole compound was impermeable, the EC50 was right-shifted in the live cells relative to the permeabilized cells.

Nluc = Nluc (Oplophorus gracilirostris, UniProt Q9GV45, A31E/A60N/A81I/F95D/I117V/K70R/L54V/L99Q/M102K/N193R/P142E/Q151K/Q38R/Q45L/V71I/Y165I); experiment: Multiplex RealTime-Glo / Caspase-Glo 3/7 in A549 cells; type: cell-based; set-up: purchased Promega Corporation; conditions: final, 1 hr
Sequence of Nluc (Q9GV45 28-196 with tags or gaps with the stated changes limits assumed): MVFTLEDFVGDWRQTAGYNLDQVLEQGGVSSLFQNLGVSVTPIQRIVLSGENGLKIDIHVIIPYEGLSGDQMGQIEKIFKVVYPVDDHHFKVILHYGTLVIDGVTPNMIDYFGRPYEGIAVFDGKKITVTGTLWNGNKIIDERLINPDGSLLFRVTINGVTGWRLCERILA
Method: B) A549 cells were plated at 1,000 cells/well in 20 μL F12K media into wells of a Corning 3570 plate (n-4) and incubated overnight. Then, REALTIME-GLO™ MT Cell Viability assay reagents (Promega Corporation) were added to the wells as a 2× solution in 20 μL media. The reaction was incubated for 1 hr. 40 μL of a titration of JRW-0013 or JRW-0147 in CASPASE-GLO® 3/7 assay reagent (Promega Corporation) at 2× concentrations was added. The reactions were incubated at RT, and luminescence was determined at 1 hr.

[3] = tested on: Nluc-ADRB2 (extracellular Nluc) or ADRB2-Nluc (intracellular Nluc); experiment: Cell permeability with bioluminescent imaging (HeLa, Nluc-ADRB2 / ADRB2-Nluc); type: cell-based; conditions: 30 μM compound, 10 μM furimazine
Method: HeLa cells were transiently transfected with Nluc-ADRB2 (extracellular Nluc) or ADRB2-Nluc (intracellular Nluc) to anchor and orient Nluc extracellularly or intracellularly, respectively. 24 hrs post-transfection, cells were treated with −/+30 μM of a thienopyrrole compound, JRW-0147, JRW-0013, and JRW-0344. 10 μM furimazine was added, and luminescence was detected by imaging on the Olympus LV200.

NANOLUC® enzyme = NANOLUC® enzyme (Oplophorus gracilirostris, UniProt Q9GV45, A31E/A60N/A81I/F95D/I117V/K70R/L54V/L99Q/M102K/N193R/P142E/Q151K/Q38R/Q45L/V71I/Y165I); experiment: Inhibitor IC50 determination (NANOLUC enzyme, furimazine); type: biochemical; conditions: IC50 (uM), 0.4 ng/ml NANOLUC enzyme, final furimazine 10 uM (at Km)
Sequence of NANOLUC® enzyme (Q9GV45 28-196 with tags or gaps with the stated changes limits assumed): as above

UltraGlo luciferase = experiment: Specificity of inhibition of Nluc luciferase: UltraGlo luciferase; type: biochemical, firefly; conditions: RT 2 hrs
Method: The following example describes the specificity of disclosed thienopyrrole compounds, JRW-0251, JRW-0344, and JRW-0147, to inhibit Nluc luciferase activity versus firefly luciferase activity, e.g., ULTRAGLO® luciferase. In a Corning 3570 assay plate, a solution containing 1 μM luciferin in Luciferase Detection Reagent (Promega Corporation V865/859) was added to the assay wells. An equal volume of titrations the thienopyrrole compounds, JRW-0251, JRW-0344, and JRW-0147 were then added to the wells. The reactions were incubated at RT for 2 hrs, and luminescence was measured on Tecan M1000 Pro plate reader.

Compound | Inhibition of firefly luciferase activity (FIG. 3) [1] | Cell permeability, EC50 in Live vs Lytic cells (FIGS. 17A-17C) [2] | Caspase, Avg (luminescence) (Nluc; Inhibitor 1.73 μM) | Caspase, Avg (luminescence) (Nluc; Inhibitor 2.60 μM) | Caspase, Avg (luminescence) (Nluc; Inhibitor 3.90 μM) | Caspase, Avg (luminescence) (Nluc; Inhibitor 5.85 μM) | Caspase, Avg (luminescence) (Nluc; Inhibitor 8.78 μM) | Caspase, Avg (luminescence) (Nluc; Inhibitor 13.17 μM) | Caspase, Avg (luminescence) (Nluc; Inhibitor 19.75 μM) | Caspase, Avg (luminescence) (Nluc; Inhibitor 29.63 μM) | Caspase, Avg (luminescence) (Nluc; Inhibitor 44.44 μM) | Caspase, Avg (luminescence) (Nluc; Inhibitor 66.67 μM) | Caspase, Avg (luminescence) (Nluc; Inhibitor 100 μM) | Inhibition of Nluc oriented extracellularly / intracellularly by imaging (FIG. 19) [3] | IC50 (NANOLUC® enzyme) | Inhibition of firefly luciferase activity (Table 3) (UltraGlo luciferase) | UltraGlo luciferase, Avg (luminescence) (UltraGlo luciferase; [cmpd] 0.1953125 μM) | UltraGlo luciferase, S/B (UltraGlo luciferase; [cmpd] 0.1953125 μM) | UltraGlo luciferase, Avg (luminescence) (UltraGlo luciferase; [cmpd] 0.390625 μM) | UltraGlo luciferase, S/B (UltraGlo luciferase; [cmpd] 0.390625 μM) | other results
CCN(C(=O)Cn1c(C(=O)N[C@H]2CC[C@H](C(=O)OC)CC2)cc2sccc21)c1cccc(C)c1 [JRW-0013, trans-methyl-4-(4-(2-(ethyl(m-tolyl)amino)-2-oxoethyl)-4H-thieno[3,2-b]pyrrole-5-carboxamido)cyclohexane-1-carboxylate] | do not inhibit firefly luciferase activity; also recorded: did not inhibit the firefly luciferase activity | cell permeable control characterized by similar EC50 in Live vs Lytic cells | 12879 | 11813 | 9148 | 8059 | 6703 | 6014 | 5095 | 5132 | 4419 | 4017 | 3619 | inhibited Nluc in either orientation | 0.14 µM |  |  |  |  |  | 
CCN(C(=O)Cn1c(C(=O)N[C@H]2CC[C@H](C(=O)NCCCCCC(=O)O)CC2)cc2sccc21)c1cccc(C)c1 [JRW-0147, 6-(trans-4-(4-(2-(ethyl(m-tolyl)amino)-2-oxoethyl)-4H-thieno[3,2-b]pyrrole-5-carboxamido)cyclohexane-1-carboxamido)hexanoic acid] | do not inhibit firefly luciferase activity; also recorded: did not inhibit the firefly luciferase activity | cell impermeable characterized by right shifted EC50 in Live vs. Lytic cells | 15580 | 11677 | 9790 | 8013 | 7125 | 5545 | 5302 | 4394 | 4367 | 3427 | 3389 | inhibit the classic ring-like structure, but not when Nluc is orientated intracellularly | 0.094 µM | did not inhibit the firefly luciferase activity | 85561 | 0.99 | 84087 | 0.97 | UltraGlo luciferase, Avg (luminescence) (UltraGlo luciferase; [cmpd] 0.78125 μM): 84072; UltraGlo luciferase, S/B (UltraGlo luciferase; [cmpd] 0.78125 μM): 0.97; UltraGlo luciferase, Avg (luminescence) (UltraGlo luciferase; [cmpd] 1.5625 μM): 83668; UltraGlo luciferase, S/B (UltraGlo luciferase; [cmpd] 1.5625 μM): 0.97; UltraGlo luciferase, Avg (luminescence) (UltraGlo luciferase; [cmpd] 3.125 μM): 82252; UltraGlo luciferase, S/B (UltraGlo luciferase; [cmpd] 3.125 μM): 0.95; UltraGlo luciferase, Avg (luminescence) (UltraGlo luciferase; [cmpd] 6.25 μM): 83282; UltraGlo luciferase, S/B (UltraGlo luciferase; [cmpd] 6.25 μM): 0.97; UltraGlo luciferase, Avg (luminescence) (UltraGlo luciferase; [cmpd] 12.5 μM): 83291; UltraGlo luciferase, S/B (UltraGlo luciferase; [cmpd] 12.5 μM): 0.97; UltraGlo luciferase, Avg (luminescence) (UltraGlo luciferase; [cmpd] 25 μM): 84033; UltraGlo luciferase, S/B (UltraGlo luciferase; [cmpd] 25 μM): 0.97; UltraGlo luciferase, Avg (luminescence) (UltraGlo luciferase; [cmpd] 50 μM): 81106; UltraGlo luciferase, S/B (UltraGlo luciferase; [cmpd] 50 μM): 0.94; UltraGlo luciferase, Avg (luminescence) (UltraGlo luciferase; [cmpd] 100 μM): 80636; UltraGlo luciferase, S/B (UltraGlo luciferase; [cmpd] 100 μM): 0.93; UltraGlo luciferase, Avg (luminescence) (UltraGlo luciferase; [cmpd] 200 μM): 78035; UltraGlo luciferase, S/B (UltraGlo luciferase; [cmpd] 200 μM): 0.90
CCN(C(=O)Cn1c(C(=O)N[C@H]2CC[C@H](C(=O)NCCCCCCS(=O)(=O)[O-])CC2)cc2sccc21)c1cccc(C)c1.[Na+] [JRW-0344, Sodium 6-(trans-4-(4-(2-(ethyl(m-tolyl)amino)-2-oxoethyl)-4H-thieno[3,2-b]pyrrole-5-carboxamido)cyclohexane-1-carboxamido)hexane-1-sulfonate] |  | cell impermeable characterized by right shifted EC50 in Live vs. Lytic cells |  |  |  |  |  |  |  |  |  |  |  | inhibit the classic ring-like structure, but not when Nluc is orientated intracellularly | 0.077 µM | did not inhibit the firefly luciferase activity | 83526.33 | 1.00 | 82945.67 | 1.00 | UltraGlo luciferase, Avg (luminescence) (UltraGlo luciferase; [cmpd] 0.78125 μM): 82135.67; UltraGlo luciferase, S/B (UltraGlo luciferase; [cmpd] 0.78125 μM): 0.99; UltraGlo luciferase, Avg (luminescence) (UltraGlo luciferase; [cmpd] 1.5625 μM): 81368.33; UltraGlo luciferase, S/B (UltraGlo luciferase; [cmpd] 1.5625 μM): 0.98; UltraGlo luciferase, Avg (luminescence) (UltraGlo luciferase; [cmpd] 3.125 μM): 80134.33; UltraGlo luciferase, S/B (UltraGlo luciferase; [cmpd] 3.125 μM): 0.96; UltraGlo luciferase, Avg (luminescence) (UltraGlo luciferase; [cmpd] 6.25 μM): 83064.33; UltraGlo luciferase, S/B (UltraGlo luciferase; [cmpd] 6.25 μM): 1.00; UltraGlo luciferase, Avg (luminescence) (UltraGlo luciferase; [cmpd] 12.5 μM): 82454.67; UltraGlo luciferase, S/B (UltraGlo luciferase; [cmpd] 12.5 μM): 0.99; UltraGlo luciferase, Avg (luminescence) (UltraGlo luciferase; [cmpd] 25 μM): 83084.00; UltraGlo luciferase, S/B (UltraGlo luciferase; [cmpd] 25 μM): 1.00; UltraGlo luciferase, Avg (luminescence) (UltraGlo luciferase; [cmpd] 50 μM): 81805.00; UltraGlo luciferase, S/B (UltraGlo luciferase; [cmpd] 50 μM): 0.98; UltraGlo luciferase, Avg (luminescence) (UltraGlo luciferase; [cmpd] 100 μM): 79847.67; UltraGlo luciferase, S/B (UltraGlo luciferase; [cmpd] 100 μM): 0.96; UltraGlo luciferase, Avg (luminescence) (UltraGlo luciferase; [cmpd] 200 μM): 77230.33; UltraGlo luciferase, S/B (UltraGlo luciferase; [cmpd] 200 μM): 0.93
